Data: patent US20260272964A1, “PENTAGALLOYL GLUCOSE DERIVED FROM SCHINUS PLANTS AND METHODS OF USE” (Emory University, priority 2020, published 2026)
≈ marks a conversion by molar mass, not a printed value. Like-named read-outs stand apart in the source and are kept apart here.

Tests used:
Acinetobacter baumannii = assay: Growth inhibition of Acinetobacter baumannii (CRAB and susceptible strains); assay type: cell-based; settings: for MIC / IC50: Acinetobacter baumannii; for MIC: read-out: PGG MIC; for IC50: read-out: PGG IC50
Method: A natural products library was screened for growth inhibition of CRAB. Lead extracts were then tested in serial dilution and nine extracts from seven species were chosen for further study based on activity. Extract 429, made from the leaves of Schinus terebinthifolia, underwent bioassay-guided fractionation for growth inhibition (FIG. 1).
A library of botanical extracts generated from plants was screened for growth inhibition of CRAB. […] Bioassay-guided fractionation lead to the isolation of pentagalloyl glucose (PGG), a bioactive gallotannin. […] Topical applications of PGG, such as wound rinses and dressings, are contemplated. […]

[1] = in vivo; cited from earlier work
A. baumannii = assay: Growth inhibition assays with media supplementation; assay type: cell-based, Acinetobacter baumannii
Method: PGG antibacterial activity may be attributed to its chelation of iron. One can use a colorimetric assay to quantify binding of free iron by PGG. One can perform bioassays with iron supplementation and 2,2′-dipyridyl, a known iron chelator, as a control. To elucidate potential mechanisms of action of PGG, A. baumannii growth inhibition and time-kill assays were carried out with various supplements in combination with PGG: 0.02% oleic acid, 0.02% polysorbate 80, 1 mM iron (II) sulfate, and 1 mM iron (III) sulfate. […] Furthermore, PGG combined with oleic acid, polysorbate 80, and iron (II) sulfate treatments had roughly tenfold, 100-fold, and 1,000-fold higher CFU/mL measurements, respectively, than PGG alone at the 24 h timepoint.

O=C(OC[C@H]1O[C@@H](OC(=O)c2cc(O)c(O)c(O)c2)[C@H](OC(=O)c2cc(O)c(O)c(O)c2)[C@@H](OC(=O)c2cc(O)c(O)c(O)c2)[C@@H]1OC(=O)c1cc(O)c(O)c(O)c1)c1cc(O)c(O)c(O)c1 [PGG, [(2R,3R,4S,5R,6S)-3,4,5,6-tetrakis[(3,4,5-trihydroxybenzoyl)oxy]oxan-2-yl]methyl 3,4,5-trihydroxybenzoate]
MIC (Acinetobacter baumannii; strain AR Bank #0033): > 256 µg/mL | IC50 (Acinetobacter baumannii; strain AR Bank #0035): 8 µg/mL (≈ 8.5 µM) | MIC (Acinetobacter baumannii; strain AR Bank #0035): 256 µg/mL (≈ 272 µM) | IC50 (Acinetobacter baumannii; strain AR Bank #0036): 16 µg/mL (≈ 17 µM) | MIC (Acinetobacter baumannii; strain AR Bank #0036): > 256 µg/mL | IC50 (Acinetobacter baumannii; strain AR Bank #0037): 8 µg/mL (≈ 8.5 µM) | MIC (Acinetobacter baumannii; strain AR Bank #0037): > 256 µg/mL | IC50 (Acinetobacter baumannii; strain AR Bank #0045): 8 µg/mL (≈ 8.5 µM) | MIC (Acinetobacter baumannii; strain AR Bank #0045): 128 µg/mL (≈ 136 µM) | IC50 (Acinetobacter baumannii; strain AR Bank #0070): 16 µg/mL (≈ 17 µM) | MIC (Acinetobacter baumannii; strain AR Bank #0070): > 256 µg/mL | IC50 (Acinetobacter baumannii; strain AR Bank #0102): 8 µg/mL (≈ 8.5 µM) | MIC (Acinetobacter baumannii; strain AR Bank #0102): > 256 µg/mL | IC50 (Acinetobacter baumannii; strain AR Bank #0273): 8 µg/mL (≈ 8.5 µM) | MIC (Acinetobacter baumannii; strain AR Bank #0273): 128 µg/mL (≈ 136 µM) | IC50 (Acinetobacter baumannii; strain AR Bank #0274): 64 µg/mL (≈ 68 µM) | MIC (Acinetobacter baumannii; strain AR Bank #0274): > 256 µg/mL | IC50 (Acinetobacter baumannii; strain AR Bank #0275): 8 µg/mL (≈ 8.5 µM) | MIC (Acinetobacter baumannii; strain AR Bank #0275): > 256 µg/mL | IC50 (Acinetobacter baumannii; strain AR Bank #0277): 8 µg/mL (≈ 8.5 µM) | MIC (Acinetobacter baumannii; strain AR Bank #0277): > 256 µg/mL | IC50 (Acinetobacter baumannii; strain AR Bank #0278): 8 µg/mL (≈ 8.5 µM) | MIC (Acinetobacter baumannii; strain AR Bank #0278): > 256 µg/mL | IC50 (Acinetobacter baumannii; strain AR Bank #0281): 8 µg/mL (≈ 8.5 µM) | MIC (Acinetobacter baumannii; strain AR Bank #0281): 128 µg/mL (≈ 136 µM) | IC50 (Acinetobacter baumannii; strain AR Bank #0282): 16 µg/mL (≈ 17 µM) | MIC (Acinetobacter baumannii; strain AR Bank #0282): > 256 µg/mL | IC50 (Acinetobacter baumannii; strain AR Bank #0283): 8 µg/mL (≈ 8.5 µM) | MIC (Acinetobacter baumannii; strain AR Bank #0283): > 256 µg/mL | IC50 (Acinetobacter baumannii; strain AR Bank #0284): 8 µg/mL (≈ 8.5 µM) | MIC (Acinetobacter baumannii; strain AR Bank #0284): 64 µg/mL (≈ 68 µM) | IC50 (Acinetobacter baumannii; strain AR Bank #0295): 8 µg/mL (≈ 8.5 µM) | MIC (Acinetobacter baumannii; strain AR Bank #0295): > 256 µg/mL | IC50 (Acinetobacter baumannii; strain AR Bank #0299): 8 µg/mL (≈ 8.5 µM) | MIC (Acinetobacter baumannii; strain AR Bank #0299): 128 µg/mL (≈ 136 µM) | IC50 (Acinetobacter baumannii; strain AR Bank #0300): 8 µg/mL (≈ 8.5 µM) | MIC (Acinetobacter baumannii; strain AR Bank #0300): 256 µg/mL (≈ 272 µM) | IC50 (Acinetobacter baumannii; strain NR-9667): 16 µg/mL (≈ 17 µM) | MIC (Acinetobacter baumannii; strain NR-9667): 256 µg/mL (≈ 272 µM) | IC50 (Acinetobacter baumannii; strain Naval-81): 16 µg/mL (≈ 17 µM) | MIC (Acinetobacter baumannii; strain Naval-81): > 256 µg/mL | IC50 (Acinetobacter baumannii; strain OIFC143): 8 µg/mL (≈ 8.5 µM) | MIC (Acinetobacter baumannii; strain OIFC143): 128 µg/mL (≈ 136 µM) | activity in bioassay-guided fractionation for growth inhibition (Acinetobacter baumannii; CRAB, fractions of extract 429): most active constituent | PGG MIC (Acinetobacter baumannii; strain ATCC17978): >256 µg/mL | oral bioavailability [1]: low oral bioavailability | change of growth inhibition on supplementation (A. baumannii; PGG 256-2 μg/mL with 1 mM iron (II) sulfate): attenuated growth inhibition | change of growth inhibition on supplementation (A. baumannii; PGG 256-2 μg/mL with 1 mM iron (III) sulfate): attenuated growth inhibition | change of growth inhibition on supplementation (A. baumannii; PGG 256-2 μg/mL with 0.02% oleic acid): no change in activity | change of growth inhibition on supplementation (A. baumannii; PGG 256-2 μg/mL with 0.02% polysorbate 80): attenuated growth inhibition
